Activity calls are given as the source filed them. No cut-off for these calls is given here.
Assays:
Thymidylate synthase [1] = target: T1, Thymidylate synthase (Homo sapiens, UniProt P04818); assay: Inhibition of human thymidylate synthase expressed in Escherichia coli incubated for 1 hr using varying dUMP levels by spectrophotometry based Lineweaver-Burk method
Target sequence in this assay (P04818 whole entry): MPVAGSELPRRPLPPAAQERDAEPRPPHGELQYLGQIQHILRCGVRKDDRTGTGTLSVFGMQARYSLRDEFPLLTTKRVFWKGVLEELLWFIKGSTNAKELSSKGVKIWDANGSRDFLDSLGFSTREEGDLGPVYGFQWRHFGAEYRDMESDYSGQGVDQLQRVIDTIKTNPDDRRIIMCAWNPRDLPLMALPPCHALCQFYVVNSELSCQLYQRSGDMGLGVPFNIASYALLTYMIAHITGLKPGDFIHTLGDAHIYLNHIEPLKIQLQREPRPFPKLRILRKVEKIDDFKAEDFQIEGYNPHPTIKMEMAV

2008 [2] = assay: Growth inhibition of human 2008 cells by crystal violet assay; format: functional, cell-based
A2780 = assay: Growth inhibition of human A2780 cells by crystal violet assay; format: functional, cell-based
Vero = assay: Growth inhibition of african green monkey Vero cells by crystal violet assay; format: cell-based; conditions: Chlorocebus sabaeus
Thymidylate synthase [3] = target: T1, Thymidylate synthase; assay: Inhibition of human thymidylate synthase expressed in Escherichia coli incubated for 1 hr by spectrophotometry
Target sequence in this assay (P04818 whole entry): as above

Thymidylate synthase [4] = target: T1, Thymidylate synthase; assay: Inhibition of human thymidylate synthase expressed in Escherichia coli at 25 uM incubated for 1 hr by spectrophotometry
Target sequence in this assay (P04818 2-313 limits assumed): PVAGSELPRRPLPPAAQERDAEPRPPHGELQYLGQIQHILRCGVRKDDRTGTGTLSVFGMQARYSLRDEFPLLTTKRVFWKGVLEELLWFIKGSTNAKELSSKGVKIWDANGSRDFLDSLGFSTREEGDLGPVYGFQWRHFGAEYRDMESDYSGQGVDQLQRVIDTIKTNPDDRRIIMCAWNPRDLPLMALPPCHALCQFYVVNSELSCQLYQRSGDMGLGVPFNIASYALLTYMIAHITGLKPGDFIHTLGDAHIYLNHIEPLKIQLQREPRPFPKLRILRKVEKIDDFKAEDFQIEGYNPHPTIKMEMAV

[5] = Growth inhibition of cDDP-resistant human A2780/CP70 cells by crystal violet assay; format: functional, cell-based
Thymidylate synthase [6] = target: T1, Thymidylate synthase; assay: Mixed inhibition of human thymidylate synthase expressed in Escherichia coli incubated for 1 hr using varying mTHF and dUMP levels by spectrophotometry based Lineweaver-Burk method
Target sequence in this assay (P04818 2-313 limits assumed): as above

Thymidylate synthase [7] = target: T1, Thymidylate synthase; assay: Inhibition of human thymidylate synthase expressed in Escherichia coli incubated for 1 hr assessed as reduction in mTHF Vmax value by spectrophotometry based Lineweaver-Burk method relative to untreated control
Target sequence in this assay (P04818 2-313 limits assumed): as above

[8] = Growth inhibition of cDDP-resistant human C13 cells by crystal violet assay; format: functional, cell-based
Thymidylate synthase [9] = target: T1, Thymidylate synthase; assay: Inhibition of human thymidylate synthase expressed in Escherichia coli at 100 uM incubated for 1 hr by spectrophotometry
Target sequence in this assay (P04818 2-313 limits assumed): as above

Thymidylate synthase [10] = target: T1, Thymidylate synthase; assay: Inhibition of human thymidylate synthase expressed in Escherichia coli at 50 uM incubated for 1 hr by spectrophotometry
Target sequence in this assay (P04818 2-313 limits assumed): as above

2008 [11] = assay: Inhibition of DHFR protein expression in human 2008 cells at 40 uM incubated for 72 hrs by Western blotting; format: functional; conditions: Homo sapiens, 2008, 72 h
C13 [12] = assay: Effect on thymidylate synthase protein expression in cDDP-resistant human C13 cells at 20 to 40 uM incubated for 72 hrs by Western blotting; format: functional, cell-based
2008 [13] = assay: Increase in ROS production in human 2008 cells at 40 uM incubated for 72 hrs by CM-H2DCFDA dye based fluorometry; format: functional
C13 [14] = assay: Increase in ROS production in cDDP-resistant human C13 cells at 40 uM incubated for 72 hrs by CM-H2DCFDA dye based fluorometry; format: functional, cell-based
2008 [15] = assay: Inhibition of DHFR protein expression in human 2008 cells at 20 uM incubated for 72 hrs by Western blotting; format: functional; conditions: Homo sapiens, 2008, 72 h
2008 [16] = assay: Effect on thymidylate synthase protein expression in human 2008 cells at 20 to 40 uM incubated for 72 hrs by Western blotting; format: functional, cell-based
C13 [17] = assay: Increase in ROS production in cDDP-resistant human C13 cells at 20 uM incubated for 72 hrs by CM-H2DCFDA dye based fluorometry; format: functional, cell-based
C13 [18] = assay: Inhibition of DHFR protein expression in cDDP-resistant human C13 cells at 40 uM incubated for 72 hrs by Western blotting; format: functional, cell-based
2008 [19] = assay: Increase in ROS production in human 2008 cells at 20 uM incubated for 72 hrs by CM-H2DCFDA dye based fluorometry; format: functional
C13 [20] = assay: Inhibition of DHFR protein expression in cDDP-resistant human C13 cells at 20 uM incubated for 72 hrs by Western blotting; format: functional, cell-based

SMILES | IC50 2008 [2] | IC50 (A2780) | IC50 (Vero) | IC50 (Thymidylate synthase [3]) | IC50 [5] | IC50 [8] | inhibition (Thymidylate synthase [9]) | other results
O=C(CC1S/C(=N\N=C\c2ccccc2O)N=C1O)Nc1cccc(C(F)(F)F)c1 (configuration not stated) | 21.1 µM | 19.4 µM | 30.3 µM | 90 µM | 36.4 µM | 28.3 µM |  | Ki (Thymidylate synthase [1]): 2.5 µM; inhibition (Thymidylate synthase [4]): 33%; inhibition (Thymidylate synthase [6]): Active; inhibition (Thymidylate synthase [7]): 60%
CCN(CC)CCOC(=O)c1ccc(NS(=O)(=O)c2ccc(C(C)(C)C)cc2)cc1 | > 60 µM |  |  |  |  | > 60 µM | 15% | 
Cc1ccc(C(=O)C2=C(O)C(=O)N(CCN(C)C)C2c2ccc(OCC(N)=O)cc2)o1 (configuration not stated) | 37.4 µM | 16.4 µM | > 80 µM |  | 39.5 µM | > 80 µM | 16% | 
O=c1[nH]cc(F)c(=O)[nH]1 [FLUOROURACIL] | 4.2 µM | 5.1 µM | 4.5 µM |  | 12.3 µM | 8.5 µM |  | 
COc1ccc(C)cc1NC(=O)C(=O)N/N=C/c1ccc(OCC(N)=O)cc1 | > 60 µM |  |  | 112 µM |  | > 60 µM |  | inhibition (Thymidylate synthase [10]): 35%
O=C(NC(=O)c1cn(CCNCCO)c(=O)[nH]c1=O)OCc1ccccc1 | 24.1 µM | 6.6 µM | > 80 µM | 619 µM | 16.5 µM | 56.8 µM | 36% | inhibition at 40 µM 2008 [11]: 60%; Activity (C13 [12]): inactive; fold change (FC) 2008 [13]: 1.5; Activity (C13 [14]): inactive; inhibition at 20 µM 2008 [15]: 40%; Activity 2008 [16]: inactive; Activity (C13 [17]): inactive; inhibition (C13 [18]): inactive; fold change (FC) 2008 [19]: 1.5; inhibition (C13 [20]): inactive
CCCCCn1c(=O)c(C(=O)Nc2ccc(N)cc2)c(O)c2ccccc21 | 8.8 µM | 4.9 µM | 10.2 µM | 71 µM | 12.3 µM | 9.2 µM |  | inhibition (Thymidylate synthase [4]): 41%
